# Source: ChEMBL document CHEMBL5154908, “Design, Synthesis, and Biological Characterization of Inhaled p38α/β MAPK Inhibitors for the Treatment of Lung Inflammatory Diseases” (J Med Chem, 2022)
# pIC50: −log10 of the molar value.
# Test system: not listed separately
# Test: Metabolic stability in rat liver microsomes assessed as half life at 1 uM preincubated for 10 mins followed by NADPH addition and measured after 30 mins by LC/MS/MS analysis
# Type: ADME, Microsome
# Details: time 40 min
row,Structure (SMILES),half-life at 1 µM [h]
1,Cc1ccc(-n2nc(C(C)(C)C)cc2NC(=O)N[C@H]2CC[C@@H](Oc3ccc4nnc(C(C)C)n4c3)c3ccccc32)cc1,< 0.167

# Biological target: T1, Mitogen-activated protein kinase 14 (Homo sapiens, UniProt Q16539)
# Test: Inhibition of human recombinant full length GST-tagged p38alpha expressed in Escherichia coli preincubated for 2 hrs followed by ATP addition and measured after 1 hr by Alpha screen assay
# Details: not given
# T1 sequence (Q16539 whole entry): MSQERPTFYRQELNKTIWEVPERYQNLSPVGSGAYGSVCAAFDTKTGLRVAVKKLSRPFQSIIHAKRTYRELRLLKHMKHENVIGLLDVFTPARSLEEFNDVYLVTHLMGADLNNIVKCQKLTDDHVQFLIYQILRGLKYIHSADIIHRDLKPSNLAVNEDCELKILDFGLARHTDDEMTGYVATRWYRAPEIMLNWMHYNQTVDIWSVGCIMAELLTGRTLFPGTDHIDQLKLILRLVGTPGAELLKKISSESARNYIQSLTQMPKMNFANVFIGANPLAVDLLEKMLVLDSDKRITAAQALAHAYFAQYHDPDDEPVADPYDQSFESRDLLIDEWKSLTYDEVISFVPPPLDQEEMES
row,Structure (SMILES),pIC50
1,Cc1ccc(-n2nc(C(C)(C)C)cc2NC(=O)N[C@H]2CC[C@@H](Oc3ccc4nnc(C(C)C)n4c3)c3ccccc32)cc1,9.70

# Test system: not listed separately
# Test: Inhibition of LPS-stimulated TNFalpha release in human PBMC cells preincubated for 1 hr followed by LPS stimulation and measured after 18 hrs
# Type: functional, cell-based
# Details: not given
row,Structure (SMILES),pIC50
1,Cc1ccc(-n2nc(C(C)(C)C)cc2NC(=O)N[C@H]2CC[C@@H](Oc3ccc4nnc(C(C)C)n4c3)c3ccccc32)cc1,10.00

# Biological target: T1, Mitogen-activated protein kinase 14
# Test: Displacement of SKF-86002 from human inactivated p38alpha assessed as dissociation half life incubated for 2 hrs by fluorescence based analysis
# Details: not given
row,Structure (SMILES),T1/2 [h]
1,Cc1ccc(-n2nc(C(C)(C)C)cc2NC(=O)N[C@H]2CC[C@@H](Oc3ccc4nnc(C(C)C)n4c3)c3ccccc32)cc1,> 16

# Biological target: Mitogen-activated protein kinase 11 (Homo sapiens, UniProt Q15759)
# Test: Inhibition of recombinant human full length His-tagged p38beta expressed in baculovirus expression system preincubated for 2 hrs followed by ATP addition and measured after 1 hr by Alpha screen assay
# Details: not given
# Mitogen-activated protein kinase 11, sequence (Q15759 whole entry): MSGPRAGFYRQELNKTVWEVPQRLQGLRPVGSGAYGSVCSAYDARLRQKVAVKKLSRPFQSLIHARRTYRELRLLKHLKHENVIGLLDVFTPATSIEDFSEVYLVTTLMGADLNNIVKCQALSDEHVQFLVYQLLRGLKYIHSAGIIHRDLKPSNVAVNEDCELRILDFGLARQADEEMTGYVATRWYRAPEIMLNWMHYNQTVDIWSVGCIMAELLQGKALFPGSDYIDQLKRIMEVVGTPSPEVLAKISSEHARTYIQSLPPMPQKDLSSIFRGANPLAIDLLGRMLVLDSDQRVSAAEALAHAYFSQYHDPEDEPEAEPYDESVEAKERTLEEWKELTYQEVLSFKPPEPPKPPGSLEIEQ
row,Structure (SMILES),pIC50
1,Cc1ccc(-n2nc(C(C)(C)C)cc2NC(=O)N[C@H]2CC[C@@H](Oc3ccc4nnc(C(C)C)n4c3)c3ccccc32)cc1,9.70

# Biological target: T2, Mitogen-activated protein kinase 12 (Homo sapiens, UniProt P53778)
# T2 sequence (P53778 whole entry): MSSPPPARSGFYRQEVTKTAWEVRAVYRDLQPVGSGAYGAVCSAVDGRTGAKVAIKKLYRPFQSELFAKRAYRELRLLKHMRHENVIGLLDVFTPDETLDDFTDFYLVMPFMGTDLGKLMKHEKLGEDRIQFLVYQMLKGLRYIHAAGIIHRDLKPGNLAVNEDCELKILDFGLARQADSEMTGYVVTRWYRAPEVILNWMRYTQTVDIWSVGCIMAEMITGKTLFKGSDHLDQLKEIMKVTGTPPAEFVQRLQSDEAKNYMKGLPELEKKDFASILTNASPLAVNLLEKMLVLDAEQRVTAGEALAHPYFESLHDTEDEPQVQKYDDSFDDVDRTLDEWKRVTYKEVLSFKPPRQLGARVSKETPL
# Test: Inhibition of recombinant human full length His-tagged p38gamma expressed in baculovirus expression system preincubated for 2 hrs followed by ATP addition and measured after 1 hr by Alpha screen assay
# Details: not given
row,Structure (SMILES),pIC50
1,Cc1ccc(-n2nc(C(C)(C)C)cc2NC(=O)N[C@H]2CC[C@@H](Oc3ccc4nnc(C(C)C)n4c3)c3ccccc32)cc1,6.79

# Biological target: T3, Mitogen-activated protein kinase 13 (Homo sapiens, UniProt O15264)
# T3 sequence (O15264 whole entry): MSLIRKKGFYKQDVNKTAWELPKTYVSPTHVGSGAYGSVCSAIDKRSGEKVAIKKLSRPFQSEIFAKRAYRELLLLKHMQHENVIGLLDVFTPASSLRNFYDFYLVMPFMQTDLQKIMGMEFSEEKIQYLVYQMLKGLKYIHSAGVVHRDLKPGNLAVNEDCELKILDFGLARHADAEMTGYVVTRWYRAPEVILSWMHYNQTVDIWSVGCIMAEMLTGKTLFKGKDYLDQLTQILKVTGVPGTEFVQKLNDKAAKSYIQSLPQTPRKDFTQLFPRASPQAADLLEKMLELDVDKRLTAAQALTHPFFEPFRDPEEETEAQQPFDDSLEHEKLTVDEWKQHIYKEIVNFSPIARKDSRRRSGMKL
# Test: Inhibition of recombinant human full length His-tagged p38delta expressed in baculovirus expression system preincubated for 2 hrs followed by ATP addition and measured after 1 hr by Alpha screen assay
# Details: not given
row,Structure (SMILES),pIC50
1,Cc1ccc(-n2nc(C(C)(C)C)cc2NC(=O)N[C@H]2CC[C@@H](Oc3ccc4nnc(C(C)C)n4c3)c3ccccc32)cc1,< 5.30

# Test system: not listed separately
# Test: Solubility of the compound at >=1 mg/ml measured after 30 mins by HPLC analysis
# Type: physicochemical
# Details: not given
row,Structure (SMILES),solubility at 0.5 h [µg/mL]
1,Cc1ccc(-n2nc(C(C)(C)C)cc2NC(=O)N[C@H]2CC[C@@H](Oc3ccc4nnc(C(C)C)n4c3)c3ccccc32)cc1,10

# Test system: not listed separately
# Test: Permeability across apical to basolateral side in human Caco-2 cells at 10 uM measured after 60 mins by LC/MS/MS analysis
# Type: ADME, cell-based
# Details: read-out: permeability
row,Structure (SMILES),"Papp A→B at 1 h, 10 µM [×10⁻⁶ cm/s]"
1,Cc1ccc(-n2nc(C(C)(C)C)cc2NC(=O)N[C@H]2CC[C@@H](Oc3ccc4nnc(C(C)C)n4c3)c3ccccc32)cc1,2.8

# Test system: not listed separately
# Test: Protein binding in human plasma at 10 uM incubated for 4 hrs by LC/MS/MS analysis
# Type: ADME, cell-free
# Details: read-out: PPB
row,Structure (SMILES),"fraction unbound at 4 h, 10 µM"
1,Cc1ccc(-n2nc(C(C)(C)C)cc2NC(=O)N[C@H]2CC[C@@H](Oc3ccc4nnc(C(C)C)n4c3)c3ccccc32)cc1,0.001

# Test system: not listed separately
# Test: Protein binding in rat plasma at 10 uM incubated for 4 hrs by LC/MS/MS analysis
# Type: ADME, cell-free
# Details: read-out: PPB (converted)
row,Structure (SMILES),"fraction unbound at 4 h, 10 µM"
1,Cc1ccc(-n2nc(C(C)(C)C)cc2NC(=O)N[C@H]2CC[C@@H](Oc3ccc4nnc(C(C)C)n4c3)c3ccccc32)cc1,< 0.001

# Test system: not listed separately
# Test: Protein binding in rat lung homogenate at 10 uM incubated for 4 hrs by LC/MS/MS analysis
# Type: ADME, tissue-based
# Details: read-out: PB (converted)
row,Structure (SMILES),"fraction unbound at 4 h, 10 µM"
1,Cc1ccc(-n2nc(C(C)(C)C)cc2NC(=O)N[C@H]2CC[C@@H](Oc3ccc4nnc(C(C)C)n4c3)c3ccccc32)cc1,0.004

# Test system: Rattus norvegicus
# Test: Antiinflammatory activity against LPS-induced Sprague-Dawley rat inflammatory model assessed as inhibition of neutrophil cells release in BALF at 1 mg/kg, IT measured after 1 hr relative to control
# Type: functional
# Details: not given
row,Structure (SMILES),inhibition in vivo at 1 mg/kg [%]
1,Cc1ccc(-n2nc(C(C)(C)C)cc2NC(=O)N[C@H]2CC[C@@H](Oc3ccc4nnc(C(C)C)n4c3)c3ccccc32)cc1,50

# Test system: Rattus norvegicus
# Test: Antiinflammatory activity against LPS-induced Sprague-Dawley rat inflammatory model assessed as inhibition of neutrophil cells release in BALF at 1 mg/kg, IT measured after 24 hrs relative to control
# Type: functional
# Details: not given
row,Structure (SMILES),inhibition in vivo at 1 mg/kg [%]
1,Cc1ccc(-n2nc(C(C)(C)C)cc2NC(=O)N[C@H]2CC[C@@H](Oc3ccc4nnc(C(C)C)n4c3)c3ccccc32)cc1,-3

# Test system: not listed separately
# Test: Cmax in Sprague-Dawley rat plasma at 0.03 mg/kg, IT measured after 0.8 hrs by LC/MS/MS analysis
# Type: ADME, organism-based
# Set-up: dose 0.03 mg/kg, time 0.8 hrs, route it
# Details: not given
row,Structure (SMILES),Cmax [nM]
1,Cc1ccc(-n2nc(C(C)(C)C)cc2NC(=O)N[C@H]2CC[C@@H](Oc3ccc4nnc(C(C)C)n4c3)c3ccccc32)cc1,90

# Test system: not listed separately
# Test: Cmax in Sprague-Dawley rat lung homogenate at 0.03 mg/kg, IT measured after 0.8 hrs by LC/MS/MS analysis
# Type: ADME, organism-based
# Set-up: time 0.8 hrs, dose 0.03 mg/kg, route it
# Details: not given
row,Structure (SMILES),Cmax [nM]
1,Cc1ccc(-n2nc(C(C)(C)C)cc2NC(=O)N[C@H]2CC[C@@H](Oc3ccc4nnc(C(C)C)n4c3)c3ccccc32)cc1,1080

# Test system: not listed separately
# Test: Drug concentration in Sprague-Dawley rat lung homogenate at 1 mg/kg, IT measured after 24 hrs by LC/MS/MS analysis
# Type: ADME, organism-based
# Details: read-out: Ct
row,Structure (SMILES),concentration at 24 h [nM]
1,Cc1ccc(-n2nc(C(C)(C)C)cc2NC(=O)N[C@H]2CC[C@@H](Oc3ccc4nnc(C(C)C)n4c3)c3ccccc32)cc1,29800

# Test system: not listed separately
# Test: Selectivity index, ratio of drug concentration in Sprague-Dawley rat lung homogenate to IC50 for human p38alpha
# Type: tissue-based
# Details: tissue homogenate
row,Structure (SMILES),Ratio
1,Cc1ccc(-n2nc(C(C)(C)C)cc2NC(=O)N[C@H]2CC[C@@H](Oc3ccc4nnc(C(C)C)n4c3)c3ccccc32)cc1,149

# Test system: not listed separately
# Test: Drug uptake in Sprague-Dawley rat lung homogenate at 0.03 mg/kg, IT measured after 7 hrs by LC/MS/MS analysis
# Type: ADME, organism-based
# Details: in vivo, other
row,Structure (SMILES),Drug uptake [%]
1,Cc1ccc(-n2nc(C(C)(C)C)cc2NC(=O)N[C@H]2CC[C@@H](Oc3ccc4nnc(C(C)C)n4c3)c3ccccc32)cc1,8.4

# Test system: not listed separately
# Test: Terminal half life in Sprague-Dawley rat lung homogenate at 0.03 mg/kg, IT measured after 24 hrs by LC/MS/MS analysis
# Type: ADME, organism-based
# Details: read-out: beta t1/2
row,Structure (SMILES),half-life [h]
1,Cc1ccc(-n2nc(C(C)(C)C)cc2NC(=O)N[C@H]2CC[C@@H](Oc3ccc4nnc(C(C)C)n4c3)c3ccccc32)cc1,> 24

# Test system: not listed separately
# Test: Drug uptake in Sprague-Dawley rat lung homogenate at 0.03 mg/kg, IT measured after 24 hrs by LC/MS/MS analysis
# Type: ADME, organism-based
# Details: in vivo, other
row,Structure (SMILES),Drug uptake [%]
1,Cc1ccc(-n2nc(C(C)(C)C)cc2NC(=O)N[C@H]2CC[C@@H](Oc3ccc4nnc(C(C)C)n4c3)c3ccccc32)cc1,9.6
